Test results: ChEMBL document CHEMBL5653631, “A Potent and Selective ULK1 Inhibitor Suppresses Autophagy and Sensitizes Cancer Cells to Nutrient Stress” (iScience, 2018)

Legend:
[1] = target: T1, Discoidin domain-containing receptor 2 (Homo sapiens) (UniProt Q16832); experiment: Inhibition of human recombinant DDR2 at 500 nM related to control ULK1
T1 sequence (whole entry): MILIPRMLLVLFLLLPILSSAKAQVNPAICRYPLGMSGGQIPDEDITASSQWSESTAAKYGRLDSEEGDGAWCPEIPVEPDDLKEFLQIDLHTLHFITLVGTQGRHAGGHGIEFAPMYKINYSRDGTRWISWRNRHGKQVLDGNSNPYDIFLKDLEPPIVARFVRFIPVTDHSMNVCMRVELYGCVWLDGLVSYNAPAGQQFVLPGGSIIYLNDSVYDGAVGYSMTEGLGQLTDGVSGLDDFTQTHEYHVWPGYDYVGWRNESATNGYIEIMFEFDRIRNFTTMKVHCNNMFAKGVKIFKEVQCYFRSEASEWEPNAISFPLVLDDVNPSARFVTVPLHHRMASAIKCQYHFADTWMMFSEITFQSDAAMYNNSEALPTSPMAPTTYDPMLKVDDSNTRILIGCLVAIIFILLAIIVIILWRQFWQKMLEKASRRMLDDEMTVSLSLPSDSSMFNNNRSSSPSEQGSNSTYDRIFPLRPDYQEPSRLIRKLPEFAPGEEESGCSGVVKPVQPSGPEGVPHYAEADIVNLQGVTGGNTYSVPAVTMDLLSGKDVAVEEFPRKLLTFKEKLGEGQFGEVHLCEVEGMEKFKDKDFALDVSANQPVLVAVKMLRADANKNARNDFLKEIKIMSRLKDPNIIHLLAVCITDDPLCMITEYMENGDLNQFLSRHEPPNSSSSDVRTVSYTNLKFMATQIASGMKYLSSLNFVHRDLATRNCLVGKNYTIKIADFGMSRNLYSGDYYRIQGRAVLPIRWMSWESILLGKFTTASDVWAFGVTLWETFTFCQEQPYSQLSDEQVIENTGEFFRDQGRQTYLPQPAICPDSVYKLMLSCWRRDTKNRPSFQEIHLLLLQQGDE

[2] = target: Rhodopsin kinase GRK7 (Homo sapiens) (UniProt Q8WTQ7); experiment: Inhibition of human recombinant GPRK7 at 500 nM related to control ULK1
Sequence of Rhodopsin kinase GRK7 (Homo sapiens) (Q8WTQ7 whole entry, looked up): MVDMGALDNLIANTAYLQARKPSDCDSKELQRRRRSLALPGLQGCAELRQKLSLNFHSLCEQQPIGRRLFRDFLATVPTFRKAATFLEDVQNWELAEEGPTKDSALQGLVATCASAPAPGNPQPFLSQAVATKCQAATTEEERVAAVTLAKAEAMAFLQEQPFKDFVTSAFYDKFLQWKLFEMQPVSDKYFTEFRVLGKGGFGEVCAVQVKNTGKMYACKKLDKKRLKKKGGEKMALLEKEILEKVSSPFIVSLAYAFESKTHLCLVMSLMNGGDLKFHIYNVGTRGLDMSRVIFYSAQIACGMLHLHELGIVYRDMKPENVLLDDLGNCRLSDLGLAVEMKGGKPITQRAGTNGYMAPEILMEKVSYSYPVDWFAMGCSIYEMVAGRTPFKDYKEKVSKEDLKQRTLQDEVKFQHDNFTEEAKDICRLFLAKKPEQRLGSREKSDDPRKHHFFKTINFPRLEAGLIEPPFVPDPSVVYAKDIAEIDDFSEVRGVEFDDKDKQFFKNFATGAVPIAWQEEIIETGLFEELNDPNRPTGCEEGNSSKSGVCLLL

[3] = target: Dual specificity mitogen-activated protein kinase kinase 2 (Homo sapiens) (UniProt P36507); experiment: Inhibition of human recombinant MAP2K2 at 15 nM in presence of ATP by radiometric assay relative to control
Sequence of Dual specificity mitogen-activated protein kinase kinase 2 (Homo sapiens) (P36507 whole entry): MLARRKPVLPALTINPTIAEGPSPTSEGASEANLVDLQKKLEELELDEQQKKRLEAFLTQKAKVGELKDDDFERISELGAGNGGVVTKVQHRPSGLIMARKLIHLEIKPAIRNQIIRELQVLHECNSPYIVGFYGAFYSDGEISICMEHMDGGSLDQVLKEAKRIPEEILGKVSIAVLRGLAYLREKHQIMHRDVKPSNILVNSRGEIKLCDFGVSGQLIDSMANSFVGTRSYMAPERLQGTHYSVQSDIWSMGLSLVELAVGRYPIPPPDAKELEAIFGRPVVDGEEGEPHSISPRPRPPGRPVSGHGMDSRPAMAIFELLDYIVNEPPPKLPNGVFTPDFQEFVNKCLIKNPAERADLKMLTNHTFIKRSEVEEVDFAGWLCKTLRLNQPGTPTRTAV

[4] = target: Serine/threonine-protein kinase 26 (Homo sapiens) (UniProt Q9P289); experiment: Inhibition of human recombinant MST4 at 15 nM related to control ULK1
Sequence of Serine/threonine-protein kinase 26 (Homo sapiens) (Q9P289 2-416 limits assumed): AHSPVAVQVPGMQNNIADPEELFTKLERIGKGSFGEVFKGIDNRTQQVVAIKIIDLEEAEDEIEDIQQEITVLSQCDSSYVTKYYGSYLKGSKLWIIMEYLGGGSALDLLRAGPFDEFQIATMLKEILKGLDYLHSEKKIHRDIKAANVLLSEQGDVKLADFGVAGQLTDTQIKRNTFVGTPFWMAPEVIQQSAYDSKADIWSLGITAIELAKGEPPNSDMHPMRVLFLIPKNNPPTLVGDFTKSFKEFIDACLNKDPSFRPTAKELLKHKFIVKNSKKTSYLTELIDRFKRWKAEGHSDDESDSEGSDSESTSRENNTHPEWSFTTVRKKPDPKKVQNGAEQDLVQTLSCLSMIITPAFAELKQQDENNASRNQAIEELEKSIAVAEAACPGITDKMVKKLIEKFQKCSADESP

[5] = target: Calcium/calmodulin-dependent protein kinase type II subunit alpha (Homo sapiens) (UniProt Q9UQM7); experiment: Inhibition of human recombinant CaMK2a at 40 nM in presence of ATP by radiometric assay relative to control
Sequence of Calcium/calmodulin-dependent protein kinase type II subunit alpha (Homo sapiens) (Q9UQM7 whole entry): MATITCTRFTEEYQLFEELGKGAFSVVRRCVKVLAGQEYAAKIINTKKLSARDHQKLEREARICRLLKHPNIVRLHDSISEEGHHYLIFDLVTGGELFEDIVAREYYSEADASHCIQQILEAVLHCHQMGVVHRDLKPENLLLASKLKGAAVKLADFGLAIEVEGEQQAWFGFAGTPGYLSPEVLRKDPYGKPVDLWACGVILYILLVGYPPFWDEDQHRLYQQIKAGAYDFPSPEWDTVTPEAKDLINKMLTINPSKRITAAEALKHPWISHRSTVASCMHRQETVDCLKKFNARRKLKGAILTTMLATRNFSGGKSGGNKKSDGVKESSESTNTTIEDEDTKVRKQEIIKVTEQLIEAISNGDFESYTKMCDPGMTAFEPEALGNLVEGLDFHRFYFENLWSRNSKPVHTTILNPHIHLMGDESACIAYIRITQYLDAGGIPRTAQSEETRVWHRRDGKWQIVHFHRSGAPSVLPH

[6] = target: Serine/threonine-protein kinase pim-1 (Homo sapiens) (UniProt P11309); experiment: Inhibition of human recombinant PIM1 at 40 nM related to control ULK1
Sequence of Serine/threonine-protein kinase pim-1 (Homo sapiens) (P11309 whole entry, looked up): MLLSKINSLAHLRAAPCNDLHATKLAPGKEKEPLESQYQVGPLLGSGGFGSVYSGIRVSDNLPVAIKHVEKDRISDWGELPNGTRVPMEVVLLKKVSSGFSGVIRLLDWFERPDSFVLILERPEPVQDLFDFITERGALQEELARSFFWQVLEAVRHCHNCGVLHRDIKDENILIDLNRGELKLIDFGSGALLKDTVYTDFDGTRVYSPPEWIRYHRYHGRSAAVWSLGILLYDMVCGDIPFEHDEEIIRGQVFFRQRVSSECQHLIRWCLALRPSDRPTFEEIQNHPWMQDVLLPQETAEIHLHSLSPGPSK

[7] = target: T2, cGMP-dependent protein kinase 1 (Homo sapiens) (UniProt Q13976); experiment: Inhibition of human recombinant PKG1 at 40 nM related to control ULK1
T2 sequence (whole entry): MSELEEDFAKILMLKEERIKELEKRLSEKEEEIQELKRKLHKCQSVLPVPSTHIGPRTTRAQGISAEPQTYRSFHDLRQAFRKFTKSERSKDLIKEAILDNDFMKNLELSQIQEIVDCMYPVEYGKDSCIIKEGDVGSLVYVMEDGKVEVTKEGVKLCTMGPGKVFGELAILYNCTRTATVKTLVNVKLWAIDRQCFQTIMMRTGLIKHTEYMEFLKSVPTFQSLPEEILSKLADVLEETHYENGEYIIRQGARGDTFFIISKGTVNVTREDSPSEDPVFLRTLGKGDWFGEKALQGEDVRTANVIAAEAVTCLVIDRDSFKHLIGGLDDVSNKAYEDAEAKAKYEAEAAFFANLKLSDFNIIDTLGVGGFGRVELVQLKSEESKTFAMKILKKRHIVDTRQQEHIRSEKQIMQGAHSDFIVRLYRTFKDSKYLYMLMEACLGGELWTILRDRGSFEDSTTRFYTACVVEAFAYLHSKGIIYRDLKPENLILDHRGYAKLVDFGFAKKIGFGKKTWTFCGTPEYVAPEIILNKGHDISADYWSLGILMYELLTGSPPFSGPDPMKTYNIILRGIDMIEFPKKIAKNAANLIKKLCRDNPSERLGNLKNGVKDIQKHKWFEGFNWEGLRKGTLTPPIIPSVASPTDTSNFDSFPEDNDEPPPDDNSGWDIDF

[8] = target: T3, Mitogen-activated protein kinase kinase kinase 7 (Homo sapiens) (UniProt O43318); experiment: Inhibition of human recombinant TAK1 at 40 nM related to control ULK1
T3 sequence (whole entry): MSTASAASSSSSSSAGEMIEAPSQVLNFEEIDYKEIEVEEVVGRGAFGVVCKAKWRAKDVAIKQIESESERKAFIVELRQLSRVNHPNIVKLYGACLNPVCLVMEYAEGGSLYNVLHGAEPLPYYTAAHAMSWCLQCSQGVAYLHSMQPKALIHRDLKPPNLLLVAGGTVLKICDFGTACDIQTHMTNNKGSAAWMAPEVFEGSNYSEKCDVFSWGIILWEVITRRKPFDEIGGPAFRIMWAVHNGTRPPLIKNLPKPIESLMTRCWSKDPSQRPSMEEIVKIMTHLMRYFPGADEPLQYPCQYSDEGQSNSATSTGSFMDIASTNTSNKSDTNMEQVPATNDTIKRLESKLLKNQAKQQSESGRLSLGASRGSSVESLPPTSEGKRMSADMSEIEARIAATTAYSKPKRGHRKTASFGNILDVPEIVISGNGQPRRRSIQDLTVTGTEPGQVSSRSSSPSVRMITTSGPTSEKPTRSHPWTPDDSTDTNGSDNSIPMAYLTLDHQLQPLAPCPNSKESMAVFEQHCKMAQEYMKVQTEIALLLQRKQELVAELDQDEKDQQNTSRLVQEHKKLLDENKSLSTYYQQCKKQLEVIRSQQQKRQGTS

[9] = target: Serine/threonine-protein kinase 25 (Homo sapiens) (UniProt O00506); experiment: Inhibition of human recombinant YSK1 at 40 nM related to control ULK1
Sequence of Serine/threonine-protein kinase 25 (Homo sapiens) (O00506 whole entry, looked up): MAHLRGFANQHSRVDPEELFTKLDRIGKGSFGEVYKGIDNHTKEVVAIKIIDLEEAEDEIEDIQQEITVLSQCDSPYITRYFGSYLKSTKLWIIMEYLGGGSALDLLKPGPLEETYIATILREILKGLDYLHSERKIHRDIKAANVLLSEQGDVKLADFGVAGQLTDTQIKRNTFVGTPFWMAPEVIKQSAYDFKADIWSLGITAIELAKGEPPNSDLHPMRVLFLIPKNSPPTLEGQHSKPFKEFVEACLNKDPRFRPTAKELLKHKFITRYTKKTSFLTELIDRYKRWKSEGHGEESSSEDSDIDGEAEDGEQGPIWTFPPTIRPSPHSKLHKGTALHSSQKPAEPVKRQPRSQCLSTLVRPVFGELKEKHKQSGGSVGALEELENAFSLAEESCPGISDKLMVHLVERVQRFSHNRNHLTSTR

CNC(=O)c1ccccc1Oc1nc(Nc2cc(OC)c(OC)c(OC)c2)ncc1Br
fold change (FC) [1]: 0
fold change (FC) [2]: 0.14

CC(C)[C@H](NC(=O)c1cc(-c2cnn3cc(-c4ccc(OCCN5CCCCC5)cc4)cnc23)cs1)C(F)(F)F
inhibition [3]: 0%
fold change (FC) [4]: 0

O=C(N[C@@H](C1CC1)C(F)(F)F)c1cc(-c2cnn3cc(-c4ccc(F)cc4)cnc23)cs1
inhibition [5]: 0%
fold change (FC) [6]: 0.07
fold change (FC) [7]: 0.08
fold change (FC) [8]: 0
fold change (FC) [9]: 0
